*1 amine or outer side, *2 acyl side, *3 side chain or, on linkers, in order; H or OH if unused. Where a SMILES comes first, the peptide text is derived from it. Bridges are numbered along the chain shown (N, C = ends). [ ]: non-standard residue; d: D form. The star is where a group is joined. ξ: configuration not given here. Phe(4-COOH) = N[C@@H](Cc1ccc(C(=O)O)cc1)C(=O)O; Bip = N[C@@H](Cc1ccc(-c2ccccc2)cc1)C(=O)O; γGlu = O=C(O)[C@H](CCC(=O)[*:2])N[*:1]; 3Pal = N[C@@H](Cc1cccnc1)C(=O)O; 4Pal = N[C@@H](Cc1ccncc1)C(=O)O; Cha = N[C@@H](CC1CCCCC1)C(=O)O; Ile(3ξ) = CCC(C)[C@H](N)C(=O)O; Thr(3ξ) = CC(O)[C@H](N)C(=O)O; Ala(CN) = N#CC[C@H](N)C(=O)O; Carboxymethyl = O=C(O)C*; NMeA = CN[C@@H](C)C(=O)O; Orn = NCCC[C@H](N)C(=O)O; dDap = NC[C@@H](N)C(=O)O; Aun = NCCCCCCCCCCC(=O)O; Dab = NCC[C@H](N)C(=O)O; Dap = NC[C@H](N)C(=O)O; AEEA = NCCOCCOCC(=O)O
Target: T1, PD-1/PD-L1 interaction (PE-labeled human PD-L1-Ig binding to Jurkat cell line over-expressing human PD-1) (Homo sapiens, UniProt Q15116)
T1 construct: expressed in transfected cells; host or cells: Jurkat
T1 sequence (Q15116 25-288): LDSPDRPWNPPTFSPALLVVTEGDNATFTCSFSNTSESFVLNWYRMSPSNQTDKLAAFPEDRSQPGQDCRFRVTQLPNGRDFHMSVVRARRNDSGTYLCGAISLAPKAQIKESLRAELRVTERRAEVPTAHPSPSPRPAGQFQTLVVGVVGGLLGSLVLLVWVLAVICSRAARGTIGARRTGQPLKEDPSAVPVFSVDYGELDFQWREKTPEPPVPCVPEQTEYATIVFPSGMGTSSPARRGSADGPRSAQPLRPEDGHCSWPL
Experiment: Jurkat-PD-1 Cell Binding High-Content Screening Assay (CBA)
Details: Jurkat-hPD-1 cells, PE-labeled PD-L1-Ig 20 nM final; read-out: Jurkat HPD1 PDL1 IC50
Procedure, shortened: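 Compound is added first to the PD-1-expressing Jurkat cells and held 2 h at 37 °C in serum-containing DMEM. The fluorescent PD-L1 fusion follows at 20 nM final for 1 h. Fixed, Hoechst-stained cells are then imaged for bound label.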

| IC50 | SMILES |
| --- | --- |
| 25.8 nM | CCC(C)[C@@H]1NC(=O)[C@H](Cc2ccc(-c3ccccc3)cc2)NC(=O)[C@H](C(C)C)NC(=O)[C@H](Cc2c[nH]c3ccccc23)NC(=O)[C@H](CC(=O)O)NC(=O)[C@H](Cc2ccc(O)cc2)NC(=O)[C@H](C(C)O)NC(=O)CSC[C@@H](C(=O)N[C@@H](CC(N)=O)C(=O)NCCOCCOCC(=O)NCCCCCCCCCCC(=O)O)NC(=O)[C@H](CO)NC(=O)[C@H](C(C)C)NC(=O)[C@H](CC(C)C)NC(=O)[C@H](CCN)NC(=O)[C@@H](CC(C)C)NC(=O)[C@H](C)N(C)C1=O (stereo partly drawn) [Example 2050] ({CH2CO}-[Thr(3ξ)]YDWV[Bip][Ile(3ξ)][NMeA][dL][Dab]LVSCN[AEEA][Aun]-OH; thioether N-14) |
| 109 nM | CCC(C)[C@@H]1NC(=O)[C@H](Cc2ccc(-c3ccccc3)cc2)NC(=O)[C@H](C(C)C)NC(=O)[C@H](Cc2c[nH]c3ccccc23)NC(=O)[C@H](CC(=O)O)NC(=O)[C@H](Cc2ccc(OCC(=O)O)cc2)NC(=O)[C@H](C(C)O)NC(=O)CSC[C@@H](C(=O)N[C@H](CC(N)=O)C(=O)NCCOCCOCC(=O)N[C@@H](CCC(=O)N[C@@H](CCCN)C(=O)NCCCCCCCCCCC(=O)O)C(=O)O)NC(=O)[C@H](CO)NC(=O)[C@H](C(C)C)NC(=O)[C@H](CC(C)C)NC(=O)[C@H](CCN)NC(=O)[C@@H](CC(C)C)NC(=O)[C@H](C)N(C)C1=O (stereo partly drawn) [Example 2051] ({CH2CO}-[Thr(3ξ)]Y(Carboxymethyl)DWV[Bip][Ile(3ξ)][NMeA][dL][Dab]LVSC[dN][AEEA][γGlu][Orn][Aun]-OH; thioether N-14) |
| 79.1 nM | CCC(C)[C@@H]1NC(=O)[C@H](Cc2ccc(-c3ccccc3)cc2)NC(=O)[C@H](CC(C)C)NC(=O)[C@H](Cc2c[nH]c3ccccc23)NC(=O)[C@H](CC(=O)O)NC(=O)[C@H](Cc2ccc(OCC(=O)O)cc2)NC(=O)[C@H](C(C)O)NC(=O)CSC[C@@H](C(=O)NCCOCCOCC(=O)N[C@@H](CCCN)C(=O)NCCCCCCCCCCC(=O)O)NC(=O)[C@H](CO)NC(=O)[C@H](C(C)C)NC(=O)[C@H](CC(C)C)NC(=O)[C@H](CC(N)=O)NC(=O)[C@@H](CC(C)C)NC(=O)[C@H](C)N(C)C1=O (stereo partly drawn) [Example 2052] ({CH2CO}-[Thr(3ξ)]Y(Carboxymethyl)DWL[Bip][Ile(3ξ)][NMeA][dL]NLVSC[AEEA][Orn][Aun]-OH; thioether N-14) |
| 66.2 nM | CCC(C)[C@@H]1NC(=O)[C@H](Cc2ccc(-c3ccccc3)cc2)NC(=O)[C@H](CC(C)C)NC(=O)[C@H](Cc2c[nH]c3ccccc23)NC(=O)[C@H](CC(=O)O)NC(=O)[C@H](Cc2ccc(O)cc2)NC(=O)[C@H](Cc2ccncc2)NC(=O)CSC[C@@H](C(=O)N[C@@H](CN)C(=O)NCCOCCOCC(=O)NCCCCCCCCCCC(=O)O)NC(=O)[C@H](CO)NC(=O)[C@H](C(C)C)NC(=O)[C@H](CC(C)C)NC(=O)[C@H](CC(N)=O)NC(=O)[C@@H](CC(C)C)NC(=O)[C@H](C)N(C)C1=O (stereo partly drawn) [Example 2053] ({CH2CO}-[4Pal]YDWL[Bip][Ile(3ξ)][NMeA][dL]NLVSC[Dap][AEEA][Aun]-OH; thioether N-14) |
| 14.3 nM | CCC(C)[C@@H]1NC(=O)[C@H](Cc2ccc(-c3ccccc3)cc2)NC(=O)[C@H](CC(C)C)NC(=O)[C@H](Cc2c[nH]c3ccccc23)NC(=O)[C@H](CC(=O)O)NC(=O)[C@H](Cc2ccc(O)cc2)NC(=O)[C@H](CC#N)NC(=O)CSC[C@@H](C(=O)N[C@@H](CN)C(=O)NCCOCCOCC(=O)NCCCCCCCCCCC(=O)O)NC(=O)[C@H](CO)NC(=O)[C@H](C(C)C)NC(=O)[C@H](CC2CCCCC2)NC(=O)[C@H](CCN)NC(=O)[C@@H](CC(C)C)NC(=O)[C@H](C)N(C)C1=O (stereo partly drawn) [Example 2054] ({CH2CO}-[Ala(CN)]YDWL[Bip][Ile(3ξ)][NMeA][dL][Dab][Cha]VSC[Dap][AEEA][Aun]-OH; thioether N-14) |
| 101 nM | CCC(C)[C@@H]1NC(=O)[C@H](Cc2ccc(-c3ccccc3)cc2)NC(=O)[C@H](CC(C)C)NC(=O)[C@H](Cc2c[nH]c3ccccc23)NC(=O)[C@H](CC(=O)O)NC(=O)[C@H](Cc2ccc(O)cc2)NC(=O)[C@H](Cc2ccccc2)NC(=O)CSC[C@@H](C(=O)N[C@@H](CN)C(=O)NCCOCCOCC(=O)NCCCCCCCCCCC(=O)O)NC(=O)[C@H](CO)NC(=O)[C@H](C(C)C)NC(=O)[C@H](CC2CCCCC2)NC(=O)[C@H](CCN)NC(=O)[C@@H](CC(C)C)NC(=O)[C@H](C)N(C)C1=O (stereo partly drawn) [Example 2055] ({CH2CO}-FYDWL[Bip][Ile(3ξ)][NMeA][dL][Dab][Cha]VSC[Dap][AEEA][Aun]-OH; thioether N-14) |
| 20 nM | CCC(C)[C@@H]1NC(=O)[C@H](Cc2ccc(-c3ccccc3)cc2)NC(=O)[C@H](CC(C)C)NC(=O)[C@H](Cc2c[nH]c3ccccc23)NC(=O)[C@H](CC(=O)O)NC(=O)[C@H](Cc2ccc(C(=O)O)cc2)NC(=O)[C@H](Cc2ccc(OCC(=O)O)cc2)NC(=O)CSC[C@@H](C(=O)NCCOCCOCC(=O)N[C@H](CN)C(=O)NCCOCCOCC(=O)NCCCCCCCCCCC(=O)O)NC(=O)[C@H](CO)NC(=O)[C@H](C(C)C)NC(=O)[C@H](CC2CCCCC2)NC(=O)[C@H](CCN)NC(=O)[C@@H](CC(C)C)NC(=O)[C@H](C)N(C)C1=O (stereo partly drawn) [Example 2056] ({CH2CO}-Y(Carboxymethyl)[Phe(4-COOH)]DWL[Bip][Ile(3ξ)][NMeA][dL][Dab][Cha]VSC[AEEA][dDap][AEEA][Aun]-OH; thioether N-14) |
| 59.9 nM | CCC(C)[C@@H]1NC(=O)[C@H](Cc2ccc(-c3ccccc3)cc2)NC(=O)[C@H](CC(C)C)NC(=O)[C@H](Cc2c[nH]c3ccccc23)NC(=O)[C@H](CC(=O)O)NC(=O)[C@H](Cc2ccc(OCC(=O)O)cc2)NC(=O)[C@H](C(C)O)NC(=O)CSC[C@@H](C(=O)N[C@H](CC(N)=O)C(=O)NCCOCCOCC(=O)NCCCCCCCCCCC(=O)O)NC(=O)[C@H](CO)NC(=O)[C@H](C(C)C)NC(=O)[C@H](CC(C)C)NC(=O)[C@H](CCN)NC(=O)[C@@H](CC(C)C)NC(=O)[C@H](C)N(C)C1=O (stereo partly drawn) [Example 2058] ({CH2CO}-[Thr(3ξ)]Y(Carboxymethyl)DWL[Bip][Ile(3ξ)][NMeA][dL][Dab]LVSC[dN][AEEA][Aun]-OH; thioether N-14) |
| 34.2 nM | CCC(C)[C@@H]1NC(=O)[C@H](Cc2ccc(-c3ccccc3)cc2)NC(=O)[C@H](C(C)C)NC(=O)[C@H](Cc2c[nH]c3ccccc23)NC(=O)[C@H](CC(=O)O)NC(=O)[C@H](Cc2ccc(O)cc2)NC(=O)[C@H](CC(N)=O)NC(=O)CSC[C@@H](C(=O)N[C@H](CC(N)=O)C(=O)NCCOCCOCC(=O)NCCCCCCCCCCC(=O)O)NC(=O)[C@H](CO)NC(=O)[C@H](C(C)C)NC(=O)[C@H](CC(C)C)NC(=O)[C@H](CCN)NC(=O)[C@@H](CC(C)C)NC(=O)[C@H](C)N(C)C1=O (stereo partly drawn) [Example 2059] ({CH2CO}-NYDWV[Bip][Ile(3ξ)][NMeA][dL][Dab]LVSC[dN][AEEA][Aun]-OH; thioether N-14) |
| 78 nM | CCC(C)[C@@H]1NC(=O)[C@H](Cc2ccc(-c3ccccc3)cc2)NC(=O)[C@H](C(C)C)NC(=O)[C@H](Cc2c[nH]c3ccccc23)NC(=O)[C@H](CC(=O)O)NC(=O)[C@H](Cc2ccc(OCC(=O)O)cc2)NC(=O)[C@H](Cc2cccnc2)NC(=O)CSC[C@@H](C(=O)N[C@H](CC(N)=O)C(=O)NCCOCCOCC(=O)N[C@@H](CCC(=O)N[C@@H](CCCN)C(=O)NCCCCCCCCCCC(=O)O)C(=O)O)NC(=O)[C@H](CO)NC(=O)[C@H](C(C)C)NC(=O)[C@H](CC(C)C)NC(=O)[C@H](CCN)NC(=O)[C@@H](CC(C)C)NC(=O)[C@H](C)N(C)C1=O (stereo partly drawn) [Example 2060] ({CH2CO}-[3Pal]Y(Carboxymethyl)DWV[Bip][Ile(3ξ)][NMeA][dL][Dab]LVSC[dN][AEEA][γGlu][Orn][Aun]-OH; thioether N-14) |
| 777 nM | CCC(C)[C@@H]1NC(=O)[C@H](Cc2ccc(-c3ccccc3)cc2)NC(=O)[C@H](CC(C)C)NC(=O)[C@H](Cc2c[nH]c3ccccc23)NC(=O)[C@H](CC(=O)O)NC(=O)[C@H](Cc2ccc(O)cc2)NC(=O)[C@H](Cc2ccncc2)NC(=O)CSC[C@@H](C(=O)N[C@H](CC(N)=O)C(=O)NCCOCCOCC(=O)N[C@@H](CCN)C(=O)NCCOCCOCC(=O)NCCCCCCCCCCC(=O)O)NC(=O)[C@H](CO)NC(=O)[C@H](C(C)C)NC(=O)[C@H](CC(C)C)NC(=O)[C@H](CC(N)=O)NC(=O)[C@@H](CC(C)C)NC(=O)[C@H](C)N(C)C1=O (stereo partly drawn) [Example 2061] ({CH2CO}-[4Pal]YDWL[Bip][Ile(3ξ)][NMeA][dL]NLVSC[dN][AEEA][Dab][AEEA][Aun]-OH; thioether N-14) |
| 38.1 nM | CCC(C)[C@@H]1NC(=O)[C@H](Cc2ccc(-c3ccccc3)cc2)NC(=O)[C@H](CC(C)C)NC(=O)[C@H](Cc2c[nH]c3ccccc23)NC(=O)[C@H](CC(=O)O)NC(=O)[C@H](Cc2ccc(OCC(=O)O)cc2)NC(=O)[C@H](Cc2ccncc2)NC(=O)CSC[C@@H](C(=O)NCCOCCOCC(=O)N[C@@H](CCCN)C(=O)NCCCCCCCCCCC(=O)O)NC(=O)[C@H](CO)NC(=O)[C@H](C(C)C)NC(=O)[C@H](CC(C)C)NC(=O)[C@H](CC(N)=O)NC(=O)[C@@H](CC(C)C)NC(=O)[C@H](C)N(C)C1=O (stereo partly drawn) [Example 2062] ({CH2CO}-[4Pal]Y(Carboxymethyl)DWL[Bip][Ile(3ξ)][NMeA][dL]NLVSC[AEEA][Orn][Aun]-OH; thioether N-14) |
| 65 nM | CCC(C)[C@@H]1NC(=O)[C@H](Cc2ccc(-c3ccccc3)cc2)NC(=O)[C@H](CC(C)C)NC(=O)[C@H](Cc2c[nH]c3ccccc23)NC(=O)[C@H](CC(=O)O)NC(=O)[C@H](Cc2ccc(O)cc2)NC(=O)[C@H](CC(N)=O)NC(=O)CSC[C@@H](C(=O)N[C@H](CC(N)=O)C(=O)NCCOCCOCC(=O)NCCCCCCCCCCC(=O)O)NC(=O)[C@H](CO)NC(=O)[C@H](C(C)C)NC(=O)[C@H](CC(C)C)NC(=O)[C@H](CCN)NC(=O)[C@@H](CC(C)C)NC(=O)[C@H](C)N(C)C1=O (stereo partly drawn) [Example 2063] ({CH2CO}-NYDWL[Bip][Ile(3ξ)][NMeA][dL][Dab]LVSC[dN][AEEA][Aun]-OH; thioether N-14) |
